According to publication PMC11742250, “Study on the absorption characteristics of euscaphic acid and tiliroside in fruits of Rosa laxa Retz” (PeerJ, 2025):

How the values were obtained:
Assay type in all cases: in vitro ADME, human
P-gp = test: in vitro; details: human, Caco-2, RB→A/A→B
Protocol: (§1) A precise amount of FRLE reserve solution is diluted to concentrations of 50, 100, and 150 μg/mL, representing the low, medium, and high concentrations of FRLE. Additionally, solutions are prepared containing 0.100 μmoL/mL Verapamil (Ver), 0.099 μmoL/mL Cyclosporine A (CsA), and 0.025 μmoL/mL EGTA at low, medium, and high concentrations for bidirectional transport.
(§2) Caco-2 cells are seeded at a density of 2.5 × 10^5 cells/mL, with 0.5 mL inoculated into each well of a Transwell® 12-well plate. After continuous culturing for 18 days, the cell model is established. Bidirectional transport experiments include AP→BL ([…], absorption transport) and BL→AP ([…], secretion transport).
(§3) Taking absorption transport as an example: 0.5 mL of drug-containing Hank’s Balanced Salt Solution (HBSS) solution is added to the apical (AP) side (supply side), while 1.5 mL of blank solution is added to the basolateral (BL) side (receiving side). At time points 15, 30, 60, 90, 120, 150, and 180 min, 200 µL is drawn from the BL side and simultaneously supplemented with 200 µL of HBSS buffer. The samples are then evaporated in a water bath, re-dissolved in methanol, and centrifuged at 12,000 rpm for 10 min. The supernatant is taken and assayed under the conditions described in “Establishment of the determination method for euscaphic acid and tiliroside”. The effects of different times, concentrations, inhibitors, chelating agents, and pH values on the absorption characteristics of euscaphic acid and tiliroside in FRLE are investigated. The secretion transport procedure is identical to the absorption transport ([Artursson & Karlsson, 1991]).
(§4) The side with the added blank solution is considered the receiving side, and the amount of drug in the receiving side is regarded as its absorption amount (Qr). In the A→B transport test, the amount of drug absorbed by the B-side chamber at any time point is denoted as (QrBi). In the B→A transport test, the amount of drug absorbed by the A-side chamber at any time point is (QrAi). The specific calculations are provided in the following formulas:
(§5) A-B transport: QrBi = 0.2 × (Cr1 + Cr2 + Λ + Cr(i-1)) + 1.5 × Cri
(§6) B-A transport: Qrdi = 0.2 × (Cr1 + Cr2 + Λ + Cr(i-1)) + 0.5 × Cdi
(§7) In the formula, 1.5 represents the volume of the test solution added to the B-side chamber (mL), 0.5 represents the volume of the test solution added to the A-side chamber (mL), and 0.2 is the volume of each sample taken (mL). Cri is the actual concentration in the receiving chamber at the i-th time point (μg/mL). The apparent permeability coefficient Papp (cm/s) is calculated using the following formula ([Lu et al., 2020]):
(§8) Papp=dQ/dt×1/A×C0 dQ/dt represents the amount of drug transported per unit of time (μg/s); A is the surface area of the 12-well Transwell® membrane (1.12 cm^2), and C0 is the initial concentration of the drug in the donor side ([…]) ([Qu et al., 2021]).
(§9) Exhaust ratio (RB-A/A-B)) is calculated using the following formula: RB−A/A−B=Papp(B−A)/Papp(A−B)

in vitro = details: human
Protocol: as §1, §2, §3, §4, §5, §6, §7, §8, §9

Caco-2 cells = test: in vitro
Protocol: as §1, §2, §3, §4, §5, §6, §7, §8, §9

C[C@@H]1CC[C@]2(C(=O)O)CC[C@]3(C)C(=CC[C@@H]4[C@@]5(C)C[C@@H](O)[C@@H](O)C(C)(C)[C@@H]5CC[C@]43C)[C@@H]2[C@]1(C)O [Euscaphic acid]
efflux ratio at 180 min, 50 μg/mL (P-gp): 0.72 ± 0.01
efflux ratio at 180 min, 100 μg/mL (P-gp): 0.78 ± 0.06
efflux ratio at 180 min, 150 μg/mL (P-gp): 1.58 ± 0.01
Papp at 180 min (in vitro; Caco-2): 0.754 to 26.9 ×10⁻⁶ cm/s
efflux ratio at 180 min, 50 μg/mL (in vitro; Caco-2, RB→A/A→B): 0.88 ± 0.01
efflux ratio at 180 min, 100 μg/mL (in vitro; Caco-2, RB→A/A→B): 0.86 ± 0.01
efflux ratio at 180 min, 150 μg/mL (in vitro; Caco-2, RB→A/A→B): 1.38 ± 0.21
efflux ratio at 180 min (in vitro; Caco-2, efflux ratio (RB→A/A→B)): < 1.5
efflux ratio at 180 min, 50 μg/mL (in vitro; Caco-2, pH 5, RB→A/A→B): 1.16 ± 0.08
efflux ratio at 180 min, 150 μg/mL (in vitro; Caco-2, pH 5, RB→A/A→B): 0.97 ± 0.06
efflux ratio at 180 min, 50 μg/mL (in vitro; Caco-2, pH 6, RB→A/A→B): 0.95 ± 0.05
efflux ratio at 180 min, 100 μg/mL (in vitro; Caco-2, pH 6, RB→A/A→B): 1.19 ± 0.02
efflux ratio at 180 min, 150 μg/mL (in vitro; Caco-2, pH 6, RB→A/A→B): 1.03 ± 0.09
efflux ratio at 180 min (in vitro; Caco-2, pH 6, RB→A/A→B value): ~1
efflux ratio at 180 min, 50 μg/mL (in vitro; Caco-2, pH 8, RB→A/A→B): 1.12 ± 0.03
efflux ratio at 180 min, 150 μg/mL (in vitro; Caco-2, pH 8, RB→A/A→B): 0.91 ± 0.05
efflux ratio at 180 min, 50 μg/mL (in vitro; Caco-2, pH 9, RB→A/A→B): 1.08 ± 0.03
P-gp substrate status (Caco-2 cells; Caco-2): substrates of P-gp
absorption category from Papp (Caco-2 cells; Caco-2): good absorption
transport mechanism (Caco-2 cells; Caco-2): passive diffusion
transport of euscaphic acid over time (Fig. 5M-O) (Caco-2 cells; human, Caco-2, 15 min, 50 μg/mL, pH 9): 0.08
absorption amount (Qr) (Caco-2 cells; human, Caco-2, 120 min, 50 μg/mL): 4.56
transport of euscaphic acid over time (Fig. 5M-O) (Caco-2 cells; human, Caco-2, 150 min, 50 µg/mL, pH 9): 0.45
Papp (Caco-2 cells; human, Caco-2, 180 min): greater than 10^−6
RB→A/A→B ratios, range over all conditions (Caco-2 cells; human, Caco-2, 180 min): 0.72-1.58
RB→A/A→B (Caco-2 cells; human, Caco-2, 180 min, 100 μg/mL, pH 5): 1.16 ± 0.03
RB→A/A→B (Caco-2 cells; human, Caco-2, 180 min, 100 μg/mL, pH 8): 0.95 ± 0.02
RB→A/A→B (Caco-2 cells; human, Caco-2, 180 min, 100 μg/mL, pH 9): 1.16 ± 0.04
RB→A/A→B (Caco-2 cells; human, Caco-2, 180 min, 150 μg/mL, pH 9): 1.14 ± 0.01
